Test system: antibiotic/microorganism combinations
Assay: TTD tests per antibiotic, Low Volume/Low Ratio vs PlusAer control
Assay type: cell-based
Details: drug amount at peak serum level in 7 ml of blood
Protocol: The performance of 1:1 blood-to-broth ratio in the presence of an inhibitory antibiotic was tested in comparison to a standard diluted blood-to-broth ratio at least 1:3. Two different sample preparations for the 1:1 blood-to-broth ratio are described below.
FIG. 3A illustrates a low volume/low ratio preparation that is prepared in a 30 ml vial with the resin and lytic media disposed in separate chambers. The preparation contained resin and 8 ml total lytic media. The sensor in the container was a solid-state fluorescent 02 sensor. The fluorescent signal changes were used to determine microorganism growth. […] The low volume/low ratio preparation provided a 1:1 blood-to-broth ratio. The total 8 ml lytic media were separated into two parts. One part of the lytic media was in the 30 ml bottle with resin and the other part of the lytic media was in a separate device and the media therein was added under sterile conditions into the 30 ml bottle at the time the bottle was inoculated with both the blood sample and the microorganisms.
FIG. 3B illustrates the second sample preparation identified as “PlusLytic”. The PlusLytic preparation uses the BACTEC Plus Aerobic product that is commercially available, which is 30 ml of media in the 80 ml bottle. At the time of testing, 8 ml of blood, a predetermined amount of antibiotic, 10-100 CFU's of microorganisms, and an additional 20 mg of saponin were combined with the 30 ml of media in the bottle. […] The control test sample preparation is depicted in FIG. 3C and identified as “PlusAer”. The PlusAer preparation uses the commercially available BACTEC Plus Aerobic product without any additional media components. At the time of testing, 8 ml of blood, a predetermined amount of antibiotic and 10-100 CFU's of microorganisms are combined with the contents of the BACTEC Plus Aerobic product.
Each sample preparation was tested with 64 antibiotic/microorganism combinations. The antibiotics tested were Gentamicin, Amoxicillin-Clavulanate, Aztreonam, Ceftriaxone, Cefepime, Imipenem, Meropenem, Piperacillin-Tazobactam, Vancomycin, Tigecycline, Ciprofloxacin, Tetracycline, Fluconazole. The drug quantity inoculated into each test bottle was equivalent to the drug amount at its peak serum level in 7 ml of blood. These antibiotics were combined with certain microorganisms that they generally treat. For example, Amoxicillin-Clavulanate was combined with S. aureus, E. coli, and E. faecalis. Each sample was tested for both TTD and recovery of the microorganism in the presence of drugs.
The media was inoculated with blood sample, antibiotics and saponin a few minutes apart from each other.

| Compound | TTD of the Low Volume/Low Ratio preparation as compared to the PlusAer preparation |
| --- | --- |
| CO/N=C(\C(=O)N[C@@H]1C(=O)N2C(C(=O)O)=C(CSc3nc(=O)c(=O)[nH]n3C)CS[C@H]12)c1csc(N)n1 [Ceftriaxone] | faster TTD |
| C[C@@H](O)[C@H]1C(=O)N2C(C(=O)O)=C(S[C@@H]3CN[C@H](C(=O)N(C)C)C3)[C@H](C)[C@H]12 [Meropenem] | faster TTD |
| CN[C@H](CC(C)C)C(=O)N[C@H]1C(=O)N[C@@H](CC(N)=O)C(=O)N[C@H]2C(=O)N[C@H]3C(=O)N[C@H](C(=O)N[C@H](C(=O)O)c4cc(O)cc(O)c4-c4cc3ccc4O)[C@H](O)c3ccc(c(Cl)c3)Oc3cc2cc(c3O[C@@H]2O[C@H](CO)[C@@H](O)[C@H](O)[C@H]2O[C@H]2C[C@](C)(N)[C@H](O)[C@H](C)O2)Oc2ccc(cc2Cl)[C@H]1O [Vancomycin] | faster TTD |
| Amoxicillin-Clavulanate [Amoxicillin/clavulanic acid] | faster TTD |
| Gentamicin | slower TTD |

— US11845919B2, “Blood culture system with low media volume” (BECTON, DICKINSON AND COMPANY, priority 2015, dated 2023)
